How the values were obtained:
subjects with AAMI = conditions: 50 mg, cited from earlier work
[1] = test system: subjects with age-associated impairment (AAMI); assay: CDR computerized cognitive test battery, 6-week placebo-controlled dose-ranging study; format: in vivo, human
Description: A single center, double blind, randomized, parallel-group, placebo controlled dose-ranging study of E-EPA in subjects with age-associated impairment (AAMI) was performed. The primary goal was to examine the effect of ethyl-EPA versus placebo on cognitive performance in subjects with AAMI as measure by the power of attention tasks in a computerized test batter over a period of 6 weeks. Secondary objectives were to:
(1) examine the effect of E-EPA versus placebo over 6 weeks on the following tests in the computerized cognitive battery: Continuity of attention tasks; Quality of working memory tasks; Quality of episodic memory tasks; Speed of attention tasks;
The study plan was to enroll 96 subjects who would be randomly allocated to 1 of 4 possible treatment groups for 6 weeks, in a balanced block design (24 subjects per group), as follows: • 1. 1 g ethyl-EPA daily • 2. 2 g ethyl-EPA daily • 3. 4 g ethyl-EPA daily • 4. Placebo (paraffin oil) daily
Ethyl-EPA was provided as 500 mg soft gel capsules providing ethyl-EPA of >96% purity, 0.25% to 0.38% by weight ethyl octadecatetraenoate, 0.075% to 0.15% by weight ethyl nonaecapentaenoate, 0.25% to 0.35% by weight ethyl arachidonate, 0.3% to 0.4% by weight ethyl eicosatetraenoate (ETA-E), 0.075% to 0.15% ethyl heneicosapentaenoate and 0.2% dl-[…]-tocopherol as an antioxidant. Matching placebo capsules contained […] of liquid paraffin and 0.2% dl-[…]-tocopherol. The placebo group was further randomized so that an equal number of subjects (8) was allocated 1 g, 2 g or 4 g placebo. Study drug was taken twice daily (BID) as a divided dose (e.g. for the 1 g dose, 500 mg was given in the morning and a further 500 mg was given in the evening) with a light snack or meal.
The study consisted of a screening visit, a training visit and 4 study visits. At the screening visit, subjects' eligibility was determined through cognitive tests (verbal paired associated learning [PAL] subscale, vocabulary subtest, Memory Assessment Clinics Questionnaire [MAC-Q], mini mental state evaluation [MMSE] and MINI [mini international neuropsychiatirc interview; sections 1 and 2 of Diagnostic and Statistical Manual of Mental Disorders, 4th Ed. (DSM-IV) plus dysthymia]), haematology, clinical chemistry and 12-lead electrocardiogram (ECG). At the training visit, subjects were shown how to use the CDR computerized system. Subjects took study drug for 6 weeks and on Days 0, 14, 28 and 42, subjects underwent the CDR cognitive test battery.
A selection of tasks from the CDR computerized cognitive assessment system were administered (Appendix 8 of protocol) at Visit 2 (training visit), Visit 3 (baseline), Visit 4 (Day 14), Visit 5 (Day 28) and Visit 6 (Day 42). Parallel forms of the tests were presented at each testing session. All tasks were computer-controlled, the information presented on high resolution monitors, and the responses recorded via a response model containing 2 buttons 1 marked ‘no’ the other ‘yes’. Five CDR composite scores were used as the primary/secondary outcome variables.
Summary statistics were provided for the ITT and Study PP Populations separately for all composite scores, major and supportive variables. Summary statistics were performed for both the unadjusted and difference from baseline data (i.e. the difference from the time matched pre-dose assessments on Day 0). Summary statistics were calculated by treatment, day and time-point. The summary statistics comprised n, mean, median, SD, standard error of mean (SEM), minimum and maximum values.
Difference from baseline data for each major variable was evaluated by an Analysis of Covariance (ANCOVA) using SAS® PROC MIXED Version 8.2.
Fixed effects for treatment, day, time point, treatment by day, treatment by time point, treatment by day by time-point were fitted. Subject within treatment was fitted as a repeated effect using the repeated statement. The compound symmetry covariance structure was used. […]

[2] = Essential fatty acid (EFA) measurements in plasma and RBC, AAMI study; format: in vivo, human
Description: (3) assess the potential dose-effect relationship of E-EPA on the cognitive endpoints by measurement of essential fatty acids in plasma and red blood cell membranes. 94 subjects were randomized. Blood samples (10 mL) were collected at Visit 1 (screening) and at Visits 4, 5 and 6. Analysis was performed by MSR Lipid Analysis, Scottish Crop Research Institute, Dundee, UK. The screening sample acted as baseline for the EFA measurements. Lipid was extracted from plasma, serum and RBC suspensions and converted into fatty acid methyl esters which were analyzed by gas chromatography to give fatty acid profiles as micrograms fatty acid per gram of sample (μgFA/g) and normalized area percent. The CDR computerized system has been used to measure the effects of pharmaceuticals on cognitive function in a variety of clinical trials. Efficacy was assessed by a battery of cognition tests designed by CDR. Safety data were analyzed by Quanticate. RBC and plasma EFA data were collected at baseline, Day 14, 28 and 42 and summarized by visit for each treatment group. Change from baseline and percent change from baseline were also summarized. ANCOVA comparison of ethyl-EPA dose groups and ethyl-EPA versus placebo was performed.

[3] = test system: individuals with Huntington disease; assay: Huntington disease trial (TREND-HD): non-fasting triacylglycerols and total cholesterol; format: in vivo, human
Description: Eligible study participants provided written consent. […] The outcome measure of this study was the change in non-fasting triacylglycerol (TG) levels in those on AMR101 compared to those on placebo. Changes in lipid levels were compared using an analysis of covariance (ANCOVA) with treatment group as the factor of interest, site as a stratification factor, and baseline value as a covariate. All individuals who received study medication were included in the safety analysis. For each type of adverse event, the treatment groups were compared regarding the occurrence of at least one event using Fisher's exact test.

[4] = test system: individuals with Huntington disease; assay: Huntington disease trial (TREND-HD): total motor score 4 of the Unified Huntington's Disease Rating Scale; format: in vivo, human
Description: Eligible study participants provided written consent.

[5] = set-up: species or system human; conditions: in vivo
Description: A phase I, multiple dose pharmacokinetic study in healthy male volunteers was carried out at a single center. Twenty-four subjects were divided into two treatment groups of 12 subjects each (groups A and B). Both groups received the same total daily dose of AMR101 but the dosing regiments were different. All subjects received a single oral dose of 2 g AMR101 on Day 1. Treatment Group A received 28 continuous once daily doses of 2 g AMR101. Treatment Group B received 27 continuous twice daily doses of 1 g AMR101 and a single dose of 2 g of AMR101 on day 30.
Levels of EPA and other essential fatty acids were determined in plasma and red blood cells. Blood samples for pharmacokinetic analysis were taken at the following time points for Treatment groups A and B:
Days 9, 16, 23: pre morning dose;
Days 37, 44, 58: post last dose.
A first Interim Report presents the following pharmacokinetic results for Treatment Group B:
Red cell—Day 1 (Pre-dose and 36 h), Day 30 (1 h post-dose), Day 37, Day 44, Day 58.

[6] = test system: patients with fasting triglyceride levels ≥500 mg/dL; assay: Phase 3 12-week double-blind study: treatment-emergent adverse events; format: in vivo, human; conditions: 12 weeks
Description: A multi-center, placebo-controlled randomized, double-blind, 12-week study with an open-label extension was performed to evaluate the efficacy and safety of AMR101 in patients with fasting triglyceride levels ≥500 mg/dL. The primary objective of the study was to determine the efficacy of AMR101 2 g daily and 4 g daily, compared to placebo, in lowering fasting TG levels in patients with fasting TG levels ≥500 mg/dL and ≤1500 mg/dL (≥5.65 mmol/L and ≤16.94 mmol/L). Approximately 240 patients were randomized at approximately 50 centers in North America, South America, Central America, Europe, India, and South Africa. The Phase 3, multi-center study consisted of 3 study periods: (1) A 6- to 8-week screening period that includes a diet and lifestyle stabilization and washout period and a TG qualifying period; (2) A 12-week, double-blind, randomized, placebo-controlled treatment period; and (3) A 40-week, open-label, extension period. After confirmation of qualifying fasting TG values, eligible patients entered a 12-week, randomized, double-blind treatment period. At Visit 4 (Week 0), patients were randomly assigned to 1 of the following treatment groups: • AMR101 2 g daily, • AMR101 4 g daily, or • Placebo. Eligible patients were randomly assigned at Visit 4 (Week 0) to receive orally AMR101 2 g daily, AMR101 4 g daily, or placebo for the 12-week double-blind treatment period. AMR101 was provided in 1 g liquid-filled, oblong, gelatin capsules. The matching placebo capsule was filled with light liquid paraffin and contained 0 g of AMR101. During the double-blind treatment period, patients took 2 capsules (AMR101 or matching placebo) in the morning and 2 in the evening for a total of 4 capsules per day. Patients in the AMR101 2 g/day treatment group received 1 AMR101 1 g capsule and 1 matching placebo capsule in the morning and in the evening. Patients in the AMR101 4 g/day treatment group received 2 AMR101 1 g capsules in the morning and evening. The efficacy variable for the open-label extension period was percent change in fasting TG from extension baseline to end of treatment. Safety assessments included adverse events, clinical laboratory measurements (chemistry, hematology, and urinalysis), 12-lead electrocardiograms (ECGs), vital signs, and physical examinations Top line results of the study are shown in FIGS. 3 and 4. Adverse events are shown in Table 9 by comparison with placebo and those experienced by subjects taking commercially available mixture of E-EPA and E-DHA (Lovaza).

## CN[C@@H](C)C/C=C/c1cncc(OC(C)C)c1 [Ispronicline]
Subjects with AAMI; Day 21, SD=61.22, placebo mean=28.25
  Power of Attention, mean: -32.54 ms
Subjects with AAMI; Day 21 of repeated dosing, subjects with AAMI
  benefit to Power of Attention (vs placebo): 61 ms

## CC/C=C\C/C=C\C/C=C\C/C=C\C/C=C\CCCC(=O)OCC [AMR101, all-cis eicosa-5,8,11,14,17-pentaenoic acid ethyl ester]
[1]; 1 and 4 g ethyl-EPA on Day 42, versus placebo
  Choice Reaction Time: some trends for benefit
[1]; 2 g ethyl-EPA, only visible in the ITT population
  Continuity of Attention: overall decrease
[1]; Ethyl-EPA vs placebo, F-ratio statistics
  Speed of Memory and subtasks (Spatial and Numeric Working Memory Speeds, Word and Picture Recognition Speed): no differences in performance
[1]; active treatment versus placebo, no obvious treatment-related pattern
  Digit Vigilance Targets Detected: isolated decreases
[1]; active treatment vs placebo
  Self-rated Calmness: no difference in ratings
[1]; ethyl-EPA 1, 2, 4 g daily vs placebo, 6 weeks, ANCOVA
  Power of Attention: no statistically significant effect of treatment
[1]; ethyl-EPA 1 g and 2 g on Day 28, versus placebo, no clear treatment-related pattern
  Choice Reaction Time: statistically significant benefits
[1]; ethyl-EPA 1 g and 2 g versus placebo on Days 14 and 28, judged due to chance
  Quality of Working Memory: isolated statistically significant decreases
[1]; ethyl-EPA 2 g on Day 28, judged unlikely treatment-related
  Self-rated Contentment: statistically significant decreases in ratings
[1]; ethyl-EPA versus placebo at various time-points, judged unlikely to be treatment effect
  Quality of Episodic Secondary Memory: statistically significant decreases
[1]; ethyl-EPA vs placebo
  Self-rated Alertness: no apparent difference in ratings
[1]; ethyl-EPA vs placebo, 6 weeks
  Continuity of Attention: did not show a difference
[1]; post-hoc analysis, ethyl-EPA 4 g vs corresponding placebo
  Reaction times in the attention tasks (Power of Attention, Simple Reaction Time, Choice Reaction Time): improved the subjects' reaction times
[2]; 4 g dose, plasma, 6 weeks
  Percent Fatty Acid Change from Baseline: AA: −21.9%
  Percent Fatty Acid Change from Baseline: DGLA: −39.4%
  Percent Fatty Acid Change from Baseline: DHA: −17.5%
  Percent Fatty Acid Change from Baseline: DPA: +147%
[2]; baseline to Day 42, 1, 2, and 4 g treatment groups
  EPA, DPAn-3 and EPA/AA ratio plasma and RBC values: increased substantially
[2]; change from baseline, data not shown
  AA, DHA and DGLA values: decreased substantially
[3]; 1 gram twice/day, after 6 months, baseline 204 mg/dL, p=0.009 vs placebo
  Total cholesterol reduction: 9.5 mg/dL
[3]; 1 gram twice/day, after 6 months, non-fasting, baseline 171, p=0.007 vs placebo
  decrease in TGs: 26 mg/dL
[3]; 1 gram twice/day, baseline 171 ± 108, p .007
  Change in triglycerides after 6 months (mean mg/dL ± SD): -25.8 ± 89.1 mg/dL
[3]; 1 gram twice/day, baseline 204 ± 41.4, p .009
  Change in total cholesterol after 6 months (mean mg/dL ± SD): -9.5 ± 28.6 mg/dL
[3]; second 6 months open-label, p 0.66
  Change in triglycerides after 12 months (mean mg/dL ± SD): -17.7 ± 86.7 mg/dL
[3]; second 6 months open-label, p 0.95
  Change in total cholesterol after 12 months (mean mg/dL ± SD): -5.6 ± 25.5 mg/dL
[4]; All Study Participants n = 316, baseline 25.2, p 0.02
  Change in total motor score 4 at 12 months (mean): 0.0
[4]; All Study Participants n = 316, baseline 25.2, p 0.20
  Change in total motor score 4 at 6 months (mean): 0.2
[4]; Study Participants with CAG < 45, n = 221, baseline 24.9, p 0.004
  Change in total motor score 4 at 12 months (mean): −1.2
[4]; Study Participants with CAG < 45, n = 221, baseline 24.9, p 0.70
  Change in total motor score 4 at 6 months (mean): 0.0
[5]; po
  plasma lipid EPA levels at 48 hours post-administration: remaining above baseline
[5]; male, human
  Tmax: 4.64 h
[5]; male, human, po
  time of maximum plasma lipid EPA values: 5 h
[6]; 2 g/day, N = 76
  Diarrhea: 4 (5.3) n (%)
  Dyspepsia: 1 (1.3) n (%)
  Eructation: 1 (1.3) n (%)
  Hypertension: 4 (5.3) n (%)
  Infection: 2 (2.6) n (%)
  Nausea: 5 (6.6) n (%)
  Skin rash: 1 (1.3) n (%)
  Subjects with any TEAE: 27 (35.5) n (%)
[6]; 4 g/day, N = 77
  Diarrhea: 1 (1.3) n (%)
  Dyspepsia: 1 (1.3) n (%)
  Eructation: 0 (0.0) n (%)
  Hypertension: 1 (1.3) n (%)
  Infection: 4 (5.2) n (%)
  Nausea: 1 (1.3) n (%)
  Skin rash: 0 (0.0) n (%)
  Subjects with any TEAE: 28 (36.4) n (%)
